Data on one substance can be found in patent publication US11999782B2, “Therapeutic agents for the treatment of diseases associated with undesired cell proliferation” (Fundació Privada Institutció Catalana de Recerca I Estudis …, priority 2009, dated 2024).

The test system of test [1] is LIF protein secretion. The test can be described thus: Secreted LIF protein by ELISA in GBM1 neurospheres. The conditions noted are these: 48 hours, 100 pM TGFβ1. The format is cell-based, human. The protocol:
FIG. 3. TGFβ induces the expression of LIF in PCTC and GBM neurospheres. (A) PCTC cells of the 11 samples of the indicated GEM (GBM1-11) were treated with 100 pM TGFβ1 for 3 hours in medium without serum or left untreated, and the expression levels of LIF were determined by means of qRT-PCR. The g-actin was determined as an internal normalization control. (B) GBM neurosphere cells were treated as in A and the expression levels of LIF were determined by means of qRT-PCR as in A. (C) GBM neurospheres were incubated with 100 pM TGFβ1 and/or 2 μM TβRI inhibitor for 3 hours in medium without serum and the mRNA levels of LIF were determined by means of qRT-PCR as in A. (D) GBM1 neurospheres were incubated with 100 pM TGFβ1, TGFβ2 and TGFβ3 for 3 hours in medium without serum and the mRNA levels of LIF were determined by means of qRT-PCR as in A. (E) The levels of LIF protein secreted were determined by means of ELISA in GBM1 neurospheres after 48 hours of treatment with 100 pM TGFβ1.
For the quantitative determination of the levels of LIF protein secreted to the medium, the human LIF ELISA kit (R&D Systems) was used, following the manufacturer's specifications. […]
It was decided to investigate the molecular mechanisms responsible for the effect of TGFβ on GICs. […] A panel of PCTCs derived from 11 different human GBMs was treated with TGFβ for 3 hours and the levels of LIF mRNA were determined.

For test [2], the system named is human LIF promoter. Kind of test: LIF promoter luciferase reporter assay. The format is cell-based. The conditions noted are these: U373MG cells as printed; 100 pM TGFβ1, 20 hours. The protocol: FIG. 4. TGFβ induces the transcription of LIF through an activated Smad complex. (A) Diagrams of the indicator constructs of luciferase LIF. (B) A172 glioma cells were transfected with indicator constructs of luciferase LIF (−634/+32), (−276/+32), (−276/+32) mutSBE or (−73/+32). 16 hours after transfection, the cells were treated with 100 pM TGFβ1 for 20 hours and were analyzed for luciferase activity. (C) U373MG cells were treated with 100 pM TGFβ1 for 3 hours, and ChIP assays were performed with the indicated antibodies and the PCR primers indicated. (D, E) The levels of LIF were determined by means of qRT-PCR analysis in U373MG (D) or GEM neurospheres (E) treated with 100 pM TGFβ1 for 3 hours after silencing mediated by siRNA of the indicated members of the indicated Smad family. Western blotting was performed using antibodies specific for Smads or qRT-PCR of Smad4. The β-actin was determined as an internal normalization control.
Genomic DNA of U373MG was used to amplify the −634/+32 region of the human LIF promoter which was cloned into the pGL2-basic luciferase vector. The deletion constructs (−267/+32), and (−73/+32) were generated by means of digestion of the construct (−634/+32). Two point mutations were introduced in positions −183 bp and −184 bp in the construct (−267/+32) to interrupt the Smad binding element (SBE) and generate the construct (−267/+32) mutSBE. […]

Regarding “TGFβ: TGFβ1 (R&D Systems), used at 100 pM according to the figure legends”, the “secretion of the LIF protein (ELISA, conditioned neurosphere medium)” value in test [1] is listed as “increase in the secretion of the LIF protein”. The “transactivation of LIF promoter reporter constructs (−634/+32 and −276/+32)” value in test [2] was “capable of transactivating”.
